From patent US20250026759A1 (Merck Sharp & Dohme LLC, priority 2023, published 2025)
Read-outs that look alike come from different tables or passages of the source.

System: PBMCs infected with VSV-G pseudotyped HIV virus (VSV-G/pNLG1-P2A-ΔEnv)
Assay: cells
Format: cell-based, human
Conditions: read-out: TACK EC50

Compound | EC50 (Homo sapiens, PBMC) | EC50
O=C1Nc2cc(Cn3nccc3CO)c(F)cc2[C@@](C#CC2CC2)(C(F)(F)F)N1 (single isomer, unassigned) [Example 5] | 109 nM | –
O=C1Nc2cc(Cn3ccc(CO)n3)c(F)cc2[C@@](C#CC2CC2)(C(F)(F)F)N1 (single isomer, unassigned) [Example 6] | 17.1 nM | –
O=C1Nc2cc(Cn3c(=O)[nH]c4cccnc43)c(F)cc2[C@@](C#CC2CC2)(C(F)(F)F)N1 (single isomer, unassigned) [Example 7] | 12 nM | –
O=C1Nc2cc(Cn3c(=O)[nH]c4ncccc43)c(F)cc2[C@@](C#CC2CC2)(C(F)(F)F)N1 (single isomer, unassigned) [Example 8] | 38.7 nM | –
O=C1Nc2cc(Cn3ncc4c3CCOC4)c(F)cc2[C@@](C#CC2CC2)(C(F)(F)F)N1 (single isomer, unassigned) [Example 22] | 60.5 nM | –
O=C1Nc2cc(Cn3cc4c(n3)CCOC4)c(F)cc2[C@@](C#CC2CC2)(C(F)(F)F)N1 (single isomer, unassigned) [Example 23] | 21.2 nM | –
O=C1Nc2cc(Cn3ncc4ccncc43)c(F)cc2[C@@](C#CC2CC2)(C(F)(F)F)N1 (single isomer, unassigned) [Example 25] | 59.9 nM | –
O=C1Nc2cc(Cn3cc4ccncc4n3)c(F)cc2[C@@](C#CC2CC2)(C(F)(F)F)N1 (single isomer, unassigned) [Example 26] | 13.6 nM | –
CC(F)(F)[C@@]1(C#CC2CC2)NC(=O)Nc2cc(Cn3cncc3CO)c(F)cc21 (single isomer, unassigned) [Example 50] | 68.1 nM | –
CC(F)(F)[C@@]1(C#CC2CC2)NC(=O)Nc2cc(Cn3cnc(CO)c3)c(F)cc21 (single isomer, unassigned) [Example 51] | 107 nM | –
COC(C)c1ccn(Cc2cc3c(cc2F)[C@@](C#CC2CC2)(C(C)(F)F)NC(=O)N3)n1 (single isomer, unassigned) [Example 58, (S)-4-(cyclopropylethynyl)-4-(1,1-difluoroethyl)-6-fluoro-7-((3-((R or S)-1-methoxyethyl)-1H-pyrazol-1-yl)methyl)-3,4-dihydroquinazolin-2(1H)-one] | – | 25 nM
COC(C)c1ccn(Cc2cc3c(cc2F)[C@@](C#CC2CC2)(C(C)(F)F)NC(=O)N3)n1 (single isomer, unassigned) [Example 59, (S)-4-(cyclopropylethynyl)-4-(1,1-difluoroethyl)-6-fluoro-7-((3-((S or R)-1-methoxyethyl)-1H-pyrazol-1-yl)methyl)-3,4-dihydroquinazolin-2(1H)-one] | – | 55.6 nM
CC(O)c1ccn(Cc2cc3c(cc2F)[C@@](C#CC2CC2)(C(C)(F)F)NC(=O)N3)n1 (single isomer, unassigned) [Example 72, (S)-4-(cyclopropylethynyl)-4-(1,1-difluoroethyl)-6-fluoro-7-((3-((S or R)-1-hydroxyethyl)-1H-pyrazol-1-yl)methyl)-3,4-dihydroquinazolin-2(1H)-one] | 46.2 nM | –
CC(O)c1ccn(Cc2cc3c(cc2F)[C@@](C#CC2CC2)(C(C)(F)F)NC(=O)N3)n1 (single isomer, unassigned) [Example 73, (S)-4-(cyclopropylethynyl)-4-(1,1-difluoroethyl)-6-fluoro-7-((3-((R or S)-1-hydroxyethyl)-1H-pyrazol-1-yl)methyl)-3,4-dihydroquinazolin-2(1H)-one] | – | 24.5 nM
CC(F)(F)[C@@]1(C#CC2CC2)NC(=O)Nc2cc(Cn3ncc(F)c3C(N)=O)c(F)cc21 (single isomer, unassigned) [Example 103] | 30.2 nM | –
CC(F)(F)[C@@]1(C#CC2CC2)NC(=O)Nc2cc(Cn3cc(F)c(C(N)=O)n3)c(F)cc21 (single isomer, unassigned) [Example 104] | 14.6 nM | –
CC(F)(F)[C@@]1(C#CC2CC2)NC(=O)Nc2cc(Cn3ncnc3N)c(F)cc21 (single isomer, unassigned) [Example 105] | 10.9 nM | –
Nc1ncn(Cc2cc3c(cc2F)[C@@](C#CC2CC2)(C(F)(F)F)NC(=O)N3)n1 (single isomer, unassigned) [Example 107] | 17.4 nM | –
CC(F)(F)[C@@]1(C#CC2CC2)NC(=O)Nc2cc(Cn3cnc(C(N)=O)n3)c(F)cc21 (single isomer, unassigned) [Example 113] | 51.2 nM | –

Compound | EC50 (Homo sapiens, PBMC) | EC50
CC(F)(F)[C@@]1(C#CC2CC2)NC(=O)Nc2cc(Cn3ncnc3C(N)=O)c(F)cc21 (single isomer, unassigned) [Example 114] | 18.5 nM | –
NC(=O)c1ncnn1Cc1cc2c(cc1F)[C@@](C#CC1CC1)(C(F)(F)F)NC(=O)N2 (single isomer, unassigned) [Example 116] | 31.8 nM | –
NC(=O)c1ncn(Cc2cc3c(cc2F)[C@@](C#CC2CC2)(C(F)(F)F)NC(=O)N3)n1 (single isomer, unassigned) [Example 117] | 31.6 nM | –
CN1C(=O)NC(=O)C1Cc1cc2c(cc1F)[C@@](C#CC1CC1)(C(C)(F)F)NC(=O)N2 (single isomer, unassigned) [Example 124, (S or R)-5-(((S)-4-(cyclopropylethynyl)-4-(1,1-difluoroethyl)-6-fluoro-2-oxo-1,2,3,4-tetrahydroquinazolin-7-yl)methyl)-1-methylimidazolidine-2,4-dione] | 90.4 nM | –
CN1C(=O)NC(=O)C1Cc1cc2c(cc1F)[C@@](C#CC1CC1)(C(C)(F)F)NC(=O)N2 (single isomer, unassigned) [Example 125, (R or S)-5-(((S)-4-(cyclopropylethynyl)-4-(1,1-difluoroethyl)-6-fluoro-2-oxo-1,2,3,4-tetrahydroquinazolin-7-yl)methyl)-1-methylimidazolidine-2,4-dione] | – | 111 nM
COc1ncn(Cc2cc3c(cc2F)[C@@](C#CC2CC2)(C(C)(F)F)NC(=O)N3)n1 [Example 1, (S)-4-(cyclopropylethynyl)-4-(1,1-difluoroethyl)-6-fluoro-7-((3-methoxy-1H-1,2,4-triazol-1-yl)methyl)-3,4-dihydroquinazolin-2(1H)-one] | 14.6 nM | –
CC(F)(F)[C@@]1(C#CC2CC2)NC(=O)Nc2cc(Cn3ccc(CO)n3)c(F)cc21 [Example 2, (S)-4-(cyclopropylethynyl)-4-(1,1-difluoroethyl)-6-fluoro-7-((3-(hydroxymethyl)-1H-pyrazol-1-yl)methyl)-3,4-dihydroquinazolin-2(1H)-one] | 14.5 nM | –
COc1cnn(Cc2cc3c(cc2F)[C@@](C#CC2CC2)(C(C)(F)F)NC(=O)N3)c1 [Example 3, (S)-4-(cyclopropylethynyl)-4-(1,1-difluoroethyl)-6-fluoro-7-((4-methoxy-1H-pyrazol-1-yl)methyl)-3,4-dihydroquinazolin-2(1H)-one] | 14.4 nM | –
CC(F)(F)[C@@]1(C#CC2CC2)NC(=O)Nc2cc(Cn3cnc(CO)n3)c(F)cc21 [Example 4, (S)-4-(cyclopropylethynyl)-4-(1,1-difluoroethyl)-6-fluoro-7-((3-(hydroxymethyl)-1H-1,2,4-triazol-1-yl)methyl)-3,4-dihydroquinazolin-2(1H)-one] | 67.7 nM | –
CN1CC(=O)N(Cc2cc3c(cc2F)[C@@](C#CC2CC2)(C(F)(F)F)NC(=O)N3)C1=O [Example 9, (S)-3-((4-(cyclopropylethynyl)-6-fluoro-2-oxo-4-(trifluoromethyl)-1,2,3,4-tetrahydroquinazolin-7-yl)methyl)-1-methylimidazolidine-2,4-dione] | 74.6 nM | –
CC(F)(F)[C@@]1(C#CC2CC2)NC(=O)Nc2cc(Cn3cc(-c4ccncc4)cn3)c(F)cc21 [Example 10, (S)-4-(cyclopropylethynyl)-4-(1,1-difluoroethyl)-6-fluoro-7-((4-(pyridin-4-yl)-1H-pyrazol-1-yl)methyl)-3,4-dihydroquinazolin-2(1H)-one] | 37.2 nM | –
Cc1cnn(Cc2cc3c(cc2F)[C@@](C#CC2CC2)(C(C)(F)F)NC(=O)N3)c1 [Example 11, (S)-4-(cyclopropylethynyl)-4-(1,1-difluoroethyl)-6-fluoro-7-((4-methyl-1H-pyrazol-1-yl)methyl)-3,4-dihydroquinazolin-2(1H)-one] | 46.6 nM | –
CC(F)(F)[C@@]1(C#CC2CC2)NC(=O)Nc2cc(Cn3c(=O)[nH]c4ccccc43)c(F)cc21 [Example 12, (S)-4-(cyclopropylethynyl)-4-(1,1-difluoroethyl)-6-fluoro-7-((2-oxo-2,3-dihydro-1H-benzo[d]imidazol-1-yl)methyl)-3,4-dihydroquinazolin-2(1H)-one] | 19.6 nM | –
O=C1Nc2cc(Cn3c(=O)oc4ccccc43)c(F)cc2[C@@](C#CC2CC2)(C(F)(F)F)N1 [Example 13, (S)-3-((4-(cyclopropylethynyl)-6-fluoro-2-oxo-4-(trifluoromethyl)-1,2,3,4-tetrahydroquinazolin-7-yl)methyl)benzo[d]oxazol-2(3H)-one] | 14.3 nM | –
CC(F)(F)[C@@]1(C#CC2CC2)NC(=O)Nc2cc(CN3C(=O)CNC3=O)c(F)cc21 [Example 14, (S)-3-((4-(cyclopropylethynyl)-4-(1,1-difluoroethyl)-6-fluoro-2-oxo-1,2,3,4-tetrahydroquinazolin-7-yl)methyl)imidazolidine-2,4-dione] | 24.8 nM | –
CC(F)(F)[C@@]1(C#CC2CC2)NC(=O)Nc2cc(Cn3cc(F)cn3)c(F)cc21 [Example 15, (S)-4-(cyclopropylethynyl)-4-(1,1-difluoroethyl)-6-fluoro-7-((4-fluoro-1H-pyrazol-1-yl)methyl)-3,4-dihydroquinazolin-2(1H)-one] | 27.3 nM | –
CC(F)(F)[C@@]1(C#CC2CC2)NC(=O)Nc2cc(Cn3cc(Cl)cn3)c(F)cc21 [Example 16, (S)-7-((4-chloro-1H-pyrazol-1-yl)methyl)-4-(cyclopropylethynyl)-4-(1,1-difluoroethyl)-6-fluoro-3,4-dihydroquinazolin-2(1H)-one] | 32.4 nM | –
CC(F)(F)[C@@]1(C#CC2CC2)NC(=O)Nc2cc(Cn3ccc(C#N)n3)c(F)cc21 [Example 17, (S)-1-((4-(cyclopropylethynyl)-4-(1,1-difluoroethyl)-6-fluoro-2-oxo-1,2,3,4-tetrahydroquinazolin-7-yl)methyl)-1H-pyrazole-3-carbonitrile] | 46.3 nM | –
